# Experiments:
# [1] = system: specific allergic asthma of guinea pigs; settings: guinea pig, in vivo
SMILES,ileum contraction response resulted from electric irritation (ex vivo ileum specimen),latent period [1]
"C[N+]12CCC(CC1)C(OCC(O)(c1ccccc1)C1CCCC1)C2.[Br-] (stereo not drawn) [Example 2, 3-(N-methyl-quinuclidinyl)-(2′-phenyl-2′-cyclopentyl-2′-hydroxyl)ethyl ether bromide]",completely blocked,248.90 ± 38.24 s
"C[N+]12CCC(CC1)C(OCC(O)(c1ccccc1)C1CCCC1)C2.[Br-] (single isomer, unassigned) [Example 3, 1-type diastereoisomer of 3-(N-methyl-quinuclidinyl)-(2′-phenyl-2′-cyclopentyl-2′-hydroxyl)ethyl ether bromide]",completely blocked,243.50 ± 42.13 s
"C[N+]12CCC(CC1)C(OCC(O)(c1ccccc1)C1CCCC1)C2.[Br-] (single isomer, unassigned) [Example 4, II-type diastereoisomer of 3-(N-methyl-quinuclidinyl)-(2′-phenyl-2′-cyclopentyl-1-2′-hydroxyl)ethyl ether bromide]",completely blocked,231.60 ± 37.30 s
